Tests used:
Type in all cases: functional, cell-based
Conditions in all cases: dog
[1] = target: T1, ATP-dependent translocase ABCB1 (Homo sapiens, UniProt P08183); test: TP_TRANSPORTER: transepithelial transport in MDR1-expressing MDCK cells
[2] = target: T1, ATP-dependent translocase ABCB1; test: TP_TRANSPORTER: transepithelial transport of Rhodamine 123 in the presence of Daunorubicin (Daunomycin) at a concentration of 80uM in MDR1-expressing MDCK cells
[3] = target: T1, ATP-dependent translocase ABCB1; test: TP_TRANSPORTER: transepithelial transport of Hoechst 33342 in the presence of Daunorubicin (Daunomycin) at a concentration of 80uM in MDR1-expressing MDCK cells
[4] = target: T1, ATP-dependent translocase ABCB1; test: TP_TRANSPORTER: transepithelial transport of Rhodamine 123 in the presence of Hoechst 33342 at a concentration of 5uM in MDR1-expressing MDCK cells

T1 sequence (P08183 whole entry): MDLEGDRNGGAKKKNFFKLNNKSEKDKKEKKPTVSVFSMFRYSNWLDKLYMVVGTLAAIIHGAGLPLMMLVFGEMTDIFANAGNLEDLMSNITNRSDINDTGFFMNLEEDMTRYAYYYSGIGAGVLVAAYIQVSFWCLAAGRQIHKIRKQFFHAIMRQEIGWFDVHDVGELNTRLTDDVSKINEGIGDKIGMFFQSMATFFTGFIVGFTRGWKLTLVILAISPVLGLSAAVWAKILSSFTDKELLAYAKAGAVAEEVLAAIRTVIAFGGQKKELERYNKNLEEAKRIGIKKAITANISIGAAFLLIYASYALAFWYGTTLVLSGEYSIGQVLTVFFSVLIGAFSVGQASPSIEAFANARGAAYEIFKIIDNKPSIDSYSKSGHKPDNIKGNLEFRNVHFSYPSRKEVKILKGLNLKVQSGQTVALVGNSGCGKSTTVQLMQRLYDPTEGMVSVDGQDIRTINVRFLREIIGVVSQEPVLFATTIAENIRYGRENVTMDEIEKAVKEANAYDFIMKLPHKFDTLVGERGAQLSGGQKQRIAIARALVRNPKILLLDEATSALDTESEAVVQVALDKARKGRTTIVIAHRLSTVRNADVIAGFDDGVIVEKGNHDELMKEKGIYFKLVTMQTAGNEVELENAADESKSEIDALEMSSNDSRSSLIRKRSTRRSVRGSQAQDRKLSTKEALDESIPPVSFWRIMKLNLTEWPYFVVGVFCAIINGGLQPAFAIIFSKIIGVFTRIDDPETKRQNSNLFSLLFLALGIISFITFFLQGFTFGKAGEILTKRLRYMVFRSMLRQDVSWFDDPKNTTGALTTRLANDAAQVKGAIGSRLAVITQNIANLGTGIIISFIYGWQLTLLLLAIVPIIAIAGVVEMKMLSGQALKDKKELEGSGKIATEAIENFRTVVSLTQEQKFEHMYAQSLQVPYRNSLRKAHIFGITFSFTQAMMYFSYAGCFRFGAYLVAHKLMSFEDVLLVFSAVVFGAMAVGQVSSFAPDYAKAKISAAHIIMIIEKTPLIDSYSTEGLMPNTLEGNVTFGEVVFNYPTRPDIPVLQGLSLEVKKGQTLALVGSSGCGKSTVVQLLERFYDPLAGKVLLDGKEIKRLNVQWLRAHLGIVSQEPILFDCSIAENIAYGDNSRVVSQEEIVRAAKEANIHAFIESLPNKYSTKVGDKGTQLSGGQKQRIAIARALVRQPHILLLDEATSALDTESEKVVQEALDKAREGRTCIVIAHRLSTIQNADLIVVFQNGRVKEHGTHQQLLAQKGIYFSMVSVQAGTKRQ

Activity [2]	Activity [3]	Structure (SMILES)	Activity [1]	Activity [4]
–	–	COC(=O)c1ccccc1-c1c2ccc(=N)cc-2oc2cc(N)ccc12.Cl [RHODAMINE123]	substrate [+]	–
inhibitor [+]	inhibitor [+]	COc1cccc2c1C(=O)c1c(O)c3c(c(O)c1C2=O)C[C@@](O)(C(C)=O)C[C@@H]3O[C@H]1C[C@H](N)[C@H](O)[C@H](C)O1 [DAUNORUBICIN]	–	–
–	–	CCOc1ccc(-c2nc3cc(-c4nc5cc(N6CCN(C)CC6)ccc5[nH]4)ccc3[nH]2)cc1	substrate [+]	inhibitor [+]

Source: ChEMBL document CHEMBL2074322, “Bidirectional transport of rhodamine 123 and Hoechst 33342, fluorescence probes of the binding sites on P-glycoprotein, across MDCK-MDR1 cell monolayers” (J Pharm Sci, 2004)
